Here are results for six compounds from patent publication US10487116B2, “Immunotherapy against several tumors, such as lung cancer, including NSCLC” (IMMATICS BIOTECHNOLOGIES GMBH, priority 2013, dated 2019).

Data set [1] concerns the target T1, HLA-DR2 (Homo sapiens, UniProt P01903+P01911).
T1 construct: purchased ProImmune
The experiment in a line: ProImmune REVEAL MHC-peptide binding assay. Particulars: compared to the positive control peptide, time 0. As to the method:
(§1) The ProImmune REVEAL® MHC-peptide binding assay determines the ability of each candidate peptide to bind to the selected HLA class II haplotype and stabilize the HLA-peptide complex. Thereby the candidate peptides are assembled in vitro with a particular HLA class II protein. The level of peptide incorporation into HLA molecules is measured by presence or absence of the native conformation of the assembled HLA-peptide complex at time 0 after completed refolding procedure (so called on-rate).
(§2) The binding capacity of candidate peptide to a particular HLA molecule is compared to the one with known very strong binding properties (positive control) resulting in the corresponding REVEAL® […] binding score. The positive control peptide is selected and provided by ProImmune based on their experience individually for each HLA haplotype.

Data set [2] relates to HLA-DR1. Briefly: ProImmune REVEAL MHC-peptide binding assay. Also noted: species or system human. As to conditions: compared to the positive control peptide, time 0. As to the method:
as §1, §2

The subject of data set [3] is HLA-DR3. Briefly: ProImmune REVEAL MHC-peptide binding assay. Also noted: species or system human. As to the method: as §1, §2
The subject of data set [4] is HLA-DR4. Briefly: ProImmune REVEAL MHC-peptide binding assay. Also noted: species or system human. Particulars: compared to the positive control peptide, time 0. As to the method: as §1, §2
In data set [5] the test system is HLA-DR5. The experiment in a line: ProImmune REVEAL MHC-peptide binding assay. Also noted: species or system human. As to conditions: compared to the positive control peptide, time 0. As to the method: as §1, §2
The test system of data set [6] is HLA-DR6. The experiment in a line: ProImmune REVEAL MHC-peptide binding assay. Also noted: species or system human. On the procedure: as §1, §2
Data set [7] has as its system HLA-DR7. Briefly: ProImmune REVEAL MHC-peptide binding assay. Also noted: species or system human. Particulars: compared to the positive control peptide, time 0. As to the method:
as §1, §2

Data set [8] has as its system HLA-DR haplotypes. The experiment in a line: ProImmune REVEAL MHC-peptide binding assay, all investigated haplotypes. Also noted: species or system human. Particulars: of 7 investigated HLA haplotypes.
Excerpt: The 7 investigated HLA-DR haplotypes are selected according to their frequencies in HLA-A*02 and HLA-A*24 positive North Americans population (Table 7.1 and 7.2)
as §1, §2

Data set [9] concerns HLA-DR haplotypes. The experiment in a line: Stability of the formed HLA-peptide complexes (REVEAL assay, 24 h at 37° C.). It is filed as binding, human. As to conditions: after 24 h at 37° C.; of 6 investigated HLA-peptide complexes. On the procedure: Besides the affinity of a peptide to a particular HLA molecule, the enduring stability of the formed HLA-peptide complex is crucial for the occurrence of an immune response. Accordingly presence of the formed HLA-peptide complex is measured after its incubation for 24 h at 37° C. Consequently the stability of the formed MHC-peptide complex is calculated as a ration of the binding scores at 24 h and the binding scores which are received right after the refolding (accordingly at time 0) in percent.

Data set [10] concerns CD4 T-cells. Briefly: Intracellular cytokine staining (ICS) of CD4 T-cells in blood samples of vaccinated patients. The format is in vivo, human. As to conditions: vaccination with IMA950 peptides, 16 patients. As to the method: A conclusion on the immugenicity of a peptide based on its binding capacity to a HLA molecule can be made by comparing the binding score of this peptide to the one with known immunogenicity. Therefore, five well investigated peptides with determined immunogenicity were selected for this comparison. The immunogenicity of these peptides was determined ex vivo in blood samples of vaccinated patients using intracellular cytokine staining (ICS) CD4 T-cells.
In principle, ICS assays analyze the quality of specific T cells in terms of effector functions. Therefore, the peripheral mononuclear cells (PBMCs) were cultivated in vitro and subsequently restimulated by the peptide of interest, a reference peptide and a negative control (here MOCK).
Following the restimulated cells were stained for FN-gamma, TNF-alpha, IL-2 and IL-10 production, as well as expression of the co-stimulatory molecule CD154. The counting of affected cells was performed on a flow cytometer (FIG. 7).

The subject of data set [11] is prostate cancer cells. As to conditions: Beckers et al., 2007; cited from earlier work.
Data set [12] has as its system lung cancer cells NCI-H460. Particulars: Wang et al., 2009a; cited from earlier work.
The subject of data set [13] is colon carcinoma cells HCT-8. As to conditions: Wang et al., 2009a; cited from earlier work.
Data set [14] has as its system colon carcinoma cells HCT-15. Particulars: Wang et al., 2009a; cited from earlier work.

T1 sequence (P01903 26-254): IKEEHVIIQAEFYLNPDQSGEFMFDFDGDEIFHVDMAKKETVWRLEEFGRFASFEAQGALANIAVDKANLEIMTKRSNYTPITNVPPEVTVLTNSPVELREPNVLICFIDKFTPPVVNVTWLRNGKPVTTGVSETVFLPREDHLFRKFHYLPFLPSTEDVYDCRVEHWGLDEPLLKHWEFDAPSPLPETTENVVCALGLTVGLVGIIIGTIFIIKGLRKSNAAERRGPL
T1 sequence (P01911 30-227 limits assumed): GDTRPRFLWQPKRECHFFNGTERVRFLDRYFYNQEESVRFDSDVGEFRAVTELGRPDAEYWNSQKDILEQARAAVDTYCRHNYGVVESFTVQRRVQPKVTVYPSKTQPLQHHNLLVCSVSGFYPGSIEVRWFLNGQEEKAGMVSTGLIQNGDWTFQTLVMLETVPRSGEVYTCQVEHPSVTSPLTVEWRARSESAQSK

For “TNGVIHVVDKLLYPADT (listed as Homo sapiens) [SEQ ID NO 77]”, the “Relative Binding Score HLA-DR2” value in data set [1] worked out at 0.68. The “Relative Binding Score HLA-DR1” value in [2] stood at 0.24. The “binding to HLA-DR3” value in data set [3] was “did not bind”. Besides, the “Relative Binding Score HLA-DR4” value in data set [4] came to 0.02. For the same compound, the “Relative Binding Score HLA-DR5” value in data set [5] was 0.08. Besides, the “binding to HLA-DR6” value in [6] was “did not bind”. Further, the “Relative Binding Score HLA-DR7” value in data set [7] is listed as 0.47. The “HLA haplotypes with which a complex is formed” value in [8] is listed as 5. Moreover, in data set [9], the HLA-peptide complexes stable turned out to be 3.
As to “BIR-002: class II peptide with known immunogenicity, IMA950 peptide (TLGEFLKLDRERAKN) [reference compound]”, the “Relative Binding Score HLA-DR2” value in [1] was found to be 0.05. Further, the “Relative Binding Score HLA-DR1” value in [2] turned out to be 40.06. Also, the “Relative Binding Score HLA-DR4” value in data set [4] was found to be 6.12. Besides, in data set [5], the “Relative Binding Score HLA-DR5” value was 103.9. Also, the “Relative Binding Score HLA-DR7” value in data set [7] is given as 0.27. For the same compound, the immune response in [10] is 100%.
With “MET-005: class II peptide with known immunogenicity, IMA950 peptide (TFSYVDPVITSISPKYG) [reference compound]”, the “Relative Binding Score HLA-DR2” value in data set [1] worked out at 0.28. For the same compound, the “Relative Binding Score HLA-DR1” value in data set [2] amounted to 0.87. Besides, in data set [4], the “Relative Binding Score HLA-DR4” value was 5.89. Besides, in data set [5], the “Relative Binding Score HLA-DR5” value was 0.12. Besides, the “Relative Binding Score HLA-DR7” value in [7] is 3.69. The compound further came in with an immune response in data set [10] of 100%.
In the case of “INNYTPDMNREDVDYAIR (listed as Homo sapiens) [SEQ ID NO 76]”, the “Relative Binding Score HLA-DR2” value in data set [1] is reported as 2.43. In [2], the “Relative Binding Score HLA-DR1” value was found to be 0.04. The “binding to HLA-DR3” value in data set [3] is given as “did not bind”. Further, the “Relative Binding Score HLA-DR4” value in data set [4] amounted to 0.74. Moreover, the “Relative Binding Score HLA-DR5” value in [5] worked out at 0.04. For the same compound, in [6], the “binding to HLA-DR6” value is reported as “did not bind”. The “Relative Binding Score HLA-DR7” value in data set [7] was 0. The “HLA haplotypes with which a complex is formed” value in data set [8] is 4. This compound yielded an HLA-peptide complexes stable in [9] of 2.
`CO[C@H]1CCCC[C@@H](c2ccccc2)OC(=O)[C@@H](C)[C@@]2(O)O[C@H]([C@@H](C)[C@H](O)[C@H]2OC)[C@@H](C)/C=C/[C@H]1OC` [soraphen A]: in data set [11], the fatty acid oxidation result is “enhances fatty acid oxidation” and the lipogenesis result is listed as “blocks lipogenesis”.
On to `CCCCCCCCCCCCCCOc1ccc(C(=O)O)o1` [TOFA, 5-tetradecyloxy-2-furoic acid], for which the cytotoxicity entry in [12], in data set [13] and in data set [14] was “cytotoxic” in each case.
